Data reported in ChEMBL document CHEMBL4196226, “5-HT2C Receptor Agonists for the Treatment of Obesity” (ACS Med Chem Lett, 2018).
The source made the active and inactive calls. No cut-off for these calls is given here.

Organism: Rattus norvegicus
Assay: Antiobesity activity in Sprague-Dawley rat assessed as reduction in cumulative food intake
Type: functional, organism-based

How did the Activity turn out when `FC(F)(F)CCc1ccnc2c1CC[C@@H]1CNCCN21` was run?
Its Activity is “Active”.
